Experimental findings from ChEMBL document CHEMBL3994582, “A2B adenosine receptor antagonists: Design, synthesis and biological evaluation of novel xanthine derivatives” (Eur J Med Chem, 2017) are described below.

One may read the Ki as the equilibrium dissociation constant of an inhibitor or competing ligand from its target. One may read the inhibition as the relative decrease from the control value, in per cent. A higher inhibition goes with strong suppression.

One series deals with T1, Adenosine receptor A2b (Homo sapiens, UniProt P29275).
T1 sequence (P29275 whole entry): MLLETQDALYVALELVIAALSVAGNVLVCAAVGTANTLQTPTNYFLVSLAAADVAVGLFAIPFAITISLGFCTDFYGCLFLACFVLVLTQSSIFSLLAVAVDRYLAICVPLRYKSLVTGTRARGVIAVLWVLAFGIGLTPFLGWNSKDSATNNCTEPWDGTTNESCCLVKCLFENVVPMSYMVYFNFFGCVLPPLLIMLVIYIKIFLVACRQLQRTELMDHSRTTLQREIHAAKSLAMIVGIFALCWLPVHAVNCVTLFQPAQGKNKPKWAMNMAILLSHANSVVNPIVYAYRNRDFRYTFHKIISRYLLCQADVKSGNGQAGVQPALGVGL
Description: Displacement of [3H]-MRS-1754 from human adenosine receptor A2b expressed in HEK293 cell membranes after 90 mins by liquid scintillation counting method.
Conditions: not given
For orientation: In a radioligand displacement assay an active substance lowers the binding of a labelled ligand.
As for `CCCn1c(=O)c2[nH]c(-c3ccc(OCC4CC(=O)N(c5ccc(C(F)(F)F)cc5)C4)cc3)nc2n(CCC)c1=O` (stereo not given), the affinity corresponds to a Ki of 1 nM.
The same measure, in the same setting: for `CCCn1c(=O)c2[nH]c(-c3ccc(OCC4CC(=O)N(c5ccc(F)cc5)C4)cc3)nc2n(CCC)c1=O` (stereo not given) the value was 5.4 nM.
`CCCn1c(=O)c2[nH]c(-c3ccc(OCC4CC(=O)N(c5cccc(C(F)(F)F)c5)C4)nc3)nc2n(CCC)c1=O` (stereo not given) gave a Ki of 8.7 nM.
The same measure, in the same setting: for `CCCn1c(=O)c2[nH]c(-c3ccc(OCC4CC(=O)N(c5cccc(F)c5)C4)cc3)nc2n(CCC)c1=O` (stereo not given) the value was 9 nM.
The same measure, in the same setting: to `CCCn1c(=O)c2[nH]c(-c3cnn(CC4CC(=O)N(c5ccc(OC)cc5)C4)c3)nc2n(CC)c1=O` (stereo not given) belongs 16 nM.

The target in the next series is T2, Adenosine receptor A1 (Homo sapiens) (UniProt P30542).
T2 sequence (whole entry): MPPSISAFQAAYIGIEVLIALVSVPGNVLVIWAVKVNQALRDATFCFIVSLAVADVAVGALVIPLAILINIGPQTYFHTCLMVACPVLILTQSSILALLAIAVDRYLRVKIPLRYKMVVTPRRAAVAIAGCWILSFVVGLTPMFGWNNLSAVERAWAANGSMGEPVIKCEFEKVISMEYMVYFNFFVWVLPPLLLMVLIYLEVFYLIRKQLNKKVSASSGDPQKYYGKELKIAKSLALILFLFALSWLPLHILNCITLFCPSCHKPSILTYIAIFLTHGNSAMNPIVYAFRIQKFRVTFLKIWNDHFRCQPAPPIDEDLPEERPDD
In words: Displacement of [3H]DPCPX from human adenosine receptor A1 expressed in HEK293 cell membranes at 0.1 uM after 90 mins by liquid scintillation counting method relative to control.
Conditions: not given
Turning to `CCCn1c(=O)c2[nH]c(-c3ccc(OCC4CC(=O)N(c5ccc(C(F)(F)F)cc5)C4)cc3)nc2n(CCC)c1=O` (stereo not given), the inhibition amounted to 29%.
Turning to `CCCn1c(=O)c2[nH]c(-c3ccc(OCC4CC(=O)N(c5ccc(F)cc5)C4)cc3)nc2n(CCC)c1=O` (stereo not given), the inhibition is 29%.
On the same count and under the same terms, to `CCCn1c(=O)c2[nH]c(-c3ccc(OCC4CC(=O)N(c5cccc(C(F)(F)F)c5)C4)nc3)nc2n(CCC)c1=O` (stereo not given) belongs 4%.
On the same count and under the same terms, to `CCCn1c(=O)c2[nH]c(-c3ccc(OCC4CC(=O)N(c5cccc(F)c5)C4)cc3)nc2n(CCC)c1=O` (stereo not given) belongs 33%.
The compound `CCCn1c(=O)c2[nH]c(-c3cnn(CC4CC(=O)N(c5ccc(OC)cc5)C4)c3)nc2n(CC)c1=O` (stereo not given) showed an inhibition of 15%.

In a further series the target is T3, Adenosine receptor A2a (Homo sapiens, UniProt P29274). Description: Displacement of [3H]-ZM-241385 from human adenosine receptor A2a expressed in HEK293 cell membranes at 0.1 uM after 90 mins by liquid scintillation counting method relative to control.
T3 sequence (P29274 whole entry): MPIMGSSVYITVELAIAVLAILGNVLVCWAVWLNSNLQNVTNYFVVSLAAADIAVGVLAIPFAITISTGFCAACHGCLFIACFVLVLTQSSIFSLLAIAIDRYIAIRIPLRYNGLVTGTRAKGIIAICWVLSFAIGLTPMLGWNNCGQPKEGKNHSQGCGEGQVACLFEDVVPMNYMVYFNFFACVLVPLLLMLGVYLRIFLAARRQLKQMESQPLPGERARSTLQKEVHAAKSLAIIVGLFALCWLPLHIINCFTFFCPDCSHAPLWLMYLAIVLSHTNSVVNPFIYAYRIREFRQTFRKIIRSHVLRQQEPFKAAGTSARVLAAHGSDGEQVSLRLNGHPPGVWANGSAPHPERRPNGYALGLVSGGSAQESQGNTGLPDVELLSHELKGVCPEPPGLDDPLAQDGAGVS
Conditions: not given
The compound `CCCn1c(=O)c2[nH]c(-c3ccc(OCC4CC(=O)N(c5ccc(C(F)(F)F)cc5)C4)cc3)nc2n(CCC)c1=O` (stereo not given) displayed an inhibition of 60%.
On the same count and under the same terms, to `CCCn1c(=O)c2[nH]c(-c3ccc(OCC4CC(=O)N(c5ccc(F)cc5)C4)cc3)nc2n(CCC)c1=O` (stereo not given) belongs 89%.
On the same count and under the same terms, for `CCCn1c(=O)c2[nH]c(-c3ccc(OCC4CC(=O)N(c5cccc(C(F)(F)F)c5)C4)nc3)nc2n(CCC)c1=O` (stereo not given) the value was 71%; for `CCCn1c(=O)c2[nH]c(-c3ccc(OCC4CC(=O)N(c5cccc(F)c5)C4)cc3)nc2n(CCC)c1=O` (stereo not given), 89%.
The same measure, in the same setting: for `CCCn1c(=O)c2[nH]c(-c3cnn(CC4CC(=O)N(c5ccc(OC)cc5)C4)c3)nc2n(CC)c1=O` (stereo not given) the value was 21%.

The target in another series is T4, Adenosine receptor A3 (Homo sapiens) (UniProt P0DMS8).
T4 sequence (whole entry): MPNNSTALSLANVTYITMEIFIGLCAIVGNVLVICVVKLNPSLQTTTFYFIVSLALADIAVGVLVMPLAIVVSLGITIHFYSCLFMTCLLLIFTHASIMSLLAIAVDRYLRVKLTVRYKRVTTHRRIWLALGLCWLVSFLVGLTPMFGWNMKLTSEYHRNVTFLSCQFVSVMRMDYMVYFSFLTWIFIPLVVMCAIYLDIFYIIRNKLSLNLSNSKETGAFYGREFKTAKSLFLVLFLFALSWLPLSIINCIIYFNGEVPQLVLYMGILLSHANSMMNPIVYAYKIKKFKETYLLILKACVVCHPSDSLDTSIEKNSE
Description: Displacement of [3H]-HEM-ADO from human adenosine receptor A3 expressed in HEK293 cell membranes at 1 uM after 90 mins by liquid scintillation counting method relative to control.
Conditions: not given
In the case of `CCCn1c(=O)c2[nH]c(-c3ccc(OCC4CC(=O)N(c5ccc(C(F)(F)F)cc5)C4)cc3)nc2n(CCC)c1=O` (stereo not given), the inhibition was 23%.
`CCCn1c(=O)c2[nH]c(-c3ccc(OCC4CC(=O)N(c5ccc(F)cc5)C4)cc3)nc2n(CCC)c1=O` (stereo not given) yielded an inhibition of 44%.
On the same count and under the same terms, for `CCCn1c(=O)c2[nH]c(-c3ccc(OCC4CC(=O)N(c5cccc(C(F)(F)F)c5)C4)nc3)nc2n(CCC)c1=O` (stereo not given) the value was 26%.
Still for that read-out and setting: to `CCCn1c(=O)c2[nH]c(-c3ccc(OCC4CC(=O)N(c5cccc(F)c5)C4)cc3)nc2n(CCC)c1=O` (stereo not given) belongs 19%; to `CCCn1c(=O)c2[nH]c(-c3cnn(CC4CC(=O)N(c5ccc(OC)cc5)C4)c3)nc2n(CC)c1=O` (stereo not given), 14%.

System in the next series: not listed separately
In words: Solubility of the compound. The format is physicochemical.
Conditions: not given
Regarding `CCCn1c(=O)c2[nH]c(-c3ccc(OCC4CC(=O)N(c5ccc(C(F)(F)F)cc5)C4)cc3)nc2n(CCC)c1=O` (stereo not given), the solubility result is reported as “Insoluble”.
On the same count and under the same terms, to `CCCn1c(=O)c2[nH]c(-c3ccc(OCC4CC(=O)N(c5ccc(F)cc5)C4)cc3)nc2n(CCC)c1=O` (stereo not given) belongs “Insoluble”; to `CCCn1c(=O)c2[nH]c(-c3ccc(OCC4CC(=O)N(c5cccc(C(F)(F)F)c5)C4)nc3)nc2n(CCC)c1=O` (stereo not given), “Insoluble”; to `CCCn1c(=O)c2[nH]c(-c3ccc(OCC4CC(=O)N(c5cccc(F)c5)C4)cc3)nc2n(CCC)c1=O` (stereo not given), “Insoluble”.

Another series has as its system Liver. Description: Metabolic stability in mouse liver microsomes assessed as metabolic rate per mg protein preincubated for 5 mins followed by NADPH addition measured up to 30 mins by LC-MS/MS analysis. Format: ADME, microsome. Conditions: 0.5 h. On the technique in general: Microsomes from liver hold many membrane-bound enzymes, among them those of drug oxidation.
Regarding `CCCn1c(=O)c2[nH]c(-c3ccc(OCC4CC(=O)N(c5ccc(C(F)(F)F)cc5)C4)cc3)nc2n(CCC)c1=O` (stereo not given), the Drug metabolism was 0.01 nmol/min/mg.
Still for that read-out and setting: to `CCCn1c(=O)c2[nH]c(-c3ccc(OCC4CC(=O)N(c5cccc(C(F)(F)F)c5)C4)nc3)nc2n(CCC)c1=O` (stereo not given) belongs 0 nmol/min/mg; to `CCCn1c(=O)c2[nH]c(-c3cnn(CC4CC(=O)N(c5ccc(OC)cc5)C4)c3)nc2n(CC)c1=O` (stereo not given), 0.07 nmol/min/mg.

In the next series the test system is Liver. Description: Metabolic stability in human liver microsomes assessed as metabolic rate per mg protein preincubated for 5 mins followed by NADPH addition measured up to 30 mins by LC-MS/MS analysis. The format is ADME, microsome. Conditions: 0.5 h.
In the case of `CCCn1c(=O)c2[nH]c(-c3ccc(OCC4CC(=O)N(c5ccc(C(F)(F)F)cc5)C4)cc3)nc2n(CCC)c1=O` (stereo not given), the Drug metabolism was 0.05 nmol/min/mg.
On the same count and under the same terms, to `CCCn1c(=O)c2[nH]c(-c3ccc(OCC4CC(=O)N(c5cccc(C(F)(F)F)c5)C4)nc3)nc2n(CCC)c1=O` (stereo not given) belongs 0.05 nmol/min/mg; to `CCCn1c(=O)c2[nH]c(-c3cnn(CC4CC(=O)N(c5ccc(OC)cc5)C4)c3)nc2n(CC)c1=O` (stereo not given), 0.11 nmol/min/mg.

The target of another series is T5, Adenosine receptor A1 (Homo sapiens, UniProt P30542).
T5 sequence (P30542 whole entry): T2 sequence (whole entry)
Description: Displacement of [3H]DPCPX from human adenosine receptor A1 expressed in HEK293 cell membranes after 90 mins by liquid scintillation counting method.
Conditions: not given
In turn, `CCCn1c(=O)c2[nH]c(-c3cnn(CC4CC(=O)N(c5ccc(OC)cc5)C4)c3)nc2n(CC)c1=O` (stereo not given) showed a Ki of 711 nM.

The next series concerns the target T3, Adenosine receptor A2a. In words: Displacement of [3H]-ZM-241385 from human adenosine receptor A2a expressed in HEK293 cell membranes after 90 mins by liquid scintillation counting method.
Conditions: not given
The compound `CCCn1c(=O)c2[nH]c(-c3cnn(CC4CC(=O)N(c5ccc(OC)cc5)C4)c3)nc2n(CC)c1=O` (stereo not given) displayed a Ki of 486 nM.

The next series is filed under the species Homo sapiens. Description: Selectivity ratio of Ki for human adenosine receptor A1 expressed in HEK293 cell membranes to Ki for human adenosine receptor A2b expressed in HEK293 cell membranes.
Conditions: not given
Format: cell-based.
Take `CCCn1c(=O)c2[nH]c(-c3cnn(CC4CC(=O)N(c5ccc(OC)cc5)C4)c3)nc2n(CC)c1=O` (stereo not given): the Ratio Ki was 44.

The next series is filed under the species Homo sapiens. In words: Selectivity ratio of Ki for human adenosine receptor A2a expressed in HEK293 cell membranes to Ki for human adenosine receptor A2b expressed in HEK293 cell membranes. Format: cell-based.
Conditions: not given
Take `CCCn1c(=O)c2[nH]c(-c3cnn(CC4CC(=O)N(c5ccc(OC)cc5)C4)c3)nc2n(CC)c1=O` (stereo not given): the Ratio Ki is 30.

Another series has as its target T1, Adenosine receptor A2b. Description: Antagonist activity at human adenosine receptor A2b expressed in HEK293 cells assessed as inhibition of NECA-induced cAMP level preincubated for 15 mins followed by NECA stimulation for 15 mins by HTRF assay. The format is functional, cell-based.
Conditions: not given
For the compound `CCCn1c(=O)c2[nH]c(-c3cnn(CC4CC(=O)N(c5ccc(OC)cc5)C4)c3)nc2n(CC)c1=O` (stereo not given), the Ki is 14 nM.
